Measurements from ChEMBL document CHEMBL1144740, “Structural characterization and DPPH radical scavenging activity of an arabinoglucogalactan from Panax notoginseng root” (J Nat Prod, 2008).

Assay: DPPH radical scavenging activity
Format: ADME

| SC50 [µg/mL] | SMILES |
| --- | --- |
| 5.24 | O=C1O[C@H]([C@@H](O)CO)C(O)=C1O [ASCORBIC ACID] |
| 11.72 | OC[C@@H](O)[C@@H]1O[C@H]2O[C@@H]3[C@@H](O)[C@H](O[C@@H]4[C@@H](O)[C@H](O[C@@H]5[C@@H](O)[C@H](O[C@@H]6[C@@H](O)[C@H](O[C@@H]7[C@@H](O)[C@H](O[C@@H]8[C@@H](O)[C@H](O[C@@H]9[C@@H](O)[C@H](O[C@@H]1[C@H]2O)O[C@H]9[C@H](O)CO)O[C@H]8[C@H](O)CO)O[C@H]7[C@H](O)CO)O[C@H]6[C@H](O)CO[C@@H]1O[C@H](CO)[C@@H](O[C@@H]2O[C@H](CO)[C@@H](O)[C@@H]2O)[C@H](O)[C@H]1O)O[C@H]5[C@H](O)CO)O[C@H]4[C@H](O)CO)O[C@H]3[C@H](O)CO |
